Data on one compound can be found in article PMC6916368, “Cell‐Based Optimization of Covalent Reversible Ketoamide Inhibitors Bridging the Unprimed to the Primed Site of the Proteasome β5 Subunit” (Chemmedchem, 2019).

Assay in all cases: Cell viability endpoint assay (Celltiter Blue, 72 h)
Holding throughout (assay type): cell-based

In assay [1] the test system is MV4‐11 cells. The note with it: Homo sapiens, MV4-11, mean±SD from two independent experiments. An outline of the steps: (§1)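 Proteasome inhibitors were tested at 1 nM to 10 μM final on 50.000 cells/well in RPMI-1640 with 0.1 % FBS, plated overnight beforehand, at 37 °C and 5 % CO2. Reagent was incubated 120 minutes before the fluorescence read. IC50 came from a sigmoidal fit of technical triplicates, as the mean of two independent experiments.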

Assay [2] deals with THP‐1 cells. Conditions: Homo sapiens, mean±SD from two independent experiments. An outline of the steps: as §1
The subject of assay [3] is Jurkat cells. The note with it: Homo sapiens, mean±SD from two independent experiments. The procedure, abridged: as §1

In the case of `Cc1cc(C)c(Oc2ccccc2)cc1NC(=O)C(=O)[C@H](CC(C)C)NC(=O)[C@H](CC(C)C)NC(=O)[C@H](CC(C)C)NC(=O)c1cc(Cl)ccc1Cl` [Compound 27, 2,5‐Dichloro‐N‐((S)‐1‐(((S)‐1‐(((S)‐1‐((2,4‐dimethyl‐5‐phenoxyphenyl)amino)‐5‐methyl‐1,2‐dioxo‐hexan‐3‐yl)amino)‐4‐methyl‐1‐oxopentan‐2‐yl)amino)‐4‐methyl‐1‐oxopentan‐2‐yl)benzamide], the IC50 was 7.4 ± 2.6 nM in assay [1], 66 ± 1 nM in assay [2] and 11 ± 1 nM in assay [3].

By IC50 is commonly meant the concentration that gives 50% inhibition.
